Test results: US20230085307A1, “PYRIDAZINONE COMPOUND AND HERBICIDE” (NISSAN CHEMICAL CORPORATION, priority 2019, published 2023)

Key:
green foxtail [1] = test: Test Example 5: herbicidal effect by foliage application, plastic box (Table 20, symbol G); type: in vivo, green foxtail (Setaria viridis); settings: foliage application, 320 g/ha, three weeks after application
Outline: (§1)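 Sow seeds spot-wise in sterilized diluvial soil; cover with ~1.5 cm soil. Grow 14 days in greenhouse, 25° C. to 30° C. Spray foliage with emulsion diluted to predetermined amount. Rate effect after 3 weeks.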

Japanese bulrush = test: Test Example 1: herbicidal activity, application before weed generation under submerged conditions (Table 16, symbol B); type: in vivo, Japanese bulrush (Schoenoplectus juncoides); settings: amount of applied herbicide 320 g/ha
Outline: (§2)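 Submerged Wagner pots (alluvial soil, 4 cm water) sown with weed seeds and planted with 2.5-leaf rice seedlings; emulsifiable concentrate diluted in water applied to water surface on sowing day. Held in greenhouse at 25-30 °C; injury scored 0-5 by herbicidal rate after three weeks.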

wild oat [2] = test: Test Example 4: herbicidal effect by soil treatment (Table 19, symbol I); type: in vivo, wild oat (Avena fatua); settings: amount of applied herbicide 320 g/ha
Outline: (§3)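 Soil-surface application: an emulsion agent diluted with water to the predetermined dose is sprayed uniformly over seeds lying under roughly 1.5 cm of sterilized diluvial soil. Boxes stay in a greenhouse at 25° C. to 30° C. Three weeks later, each species is graded on previously defined criteria.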

barnyard grass [3] = test: Test Example 3: herbicidal effect by foliage application, Wagner pot (Table 18, symbol H); type: in vivo, barnyard grass (Echinochloa crus-galli); settings: 320 g/ha
Outline: (§4)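 Plants were sown in alluvial soil held under 0.1–0.5 cm standing water and grown 14 days in a greenhouse at 25–30 °C. An emulsifiable formulation, water-diluted to the set dose, was then sprayed onto the foliage, and effects were scored three weeks later using previously defined criteria.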

chickweed [4] = test: Test Example 5: herbicidal effect by foliage application, plastic box (Table 20, symbol P); type: in vivo, common chickweed (Stellaria media); settings: foliage application, 320 g/ha, three weeks after application
Outline: as §1

persian speedwell [5] = test: Test Example 5: herbicidal effect by foliage application, plastic box (Table 20, symbol R); type: in vivo, Persian speedwell (Veronica persica); settings: foliage application, 320 g/ha, three weeks after application
Outline: as §1

velvetleaf [6] = test: Test Example 4: herbicidal effect by soil treatment (Table 19, symbol M); type: in vivo, velvetleaf (Abutilon theophrasti); settings: amount of applied herbicide 320 g/ha
Outline: as §3

Italian ryegrass [7] = test: Test Example 5: herbicidal effect by foliage application, plastic box (Table 20, symbol K); type: in vivo, Italian ryegrass (Lolium multiflorum); settings: foliage application, 320 g/ha, three weeks after application
Outline: as §1

windgrass [8] = test: Test Example 5: herbicidal effect by foliage application, plastic box (Table 20, symbol L); type: in vivo, windgrass (Apera spica-venti); settings: foliage application, 320 g/ha, three weeks after application
Outline: as §1

Italian ryegrass [9] = test: Test Example 4: herbicidal effect by soil treatment (Table 19, symbol K); type: in vivo, Italian ryegrass (Lolium multiflorum); settings: amount of applied herbicide 320 g/ha
Outline: as §3

late watergrass = test: Test Example 1: herbicidal activity, application before weed generation under submerged conditions (Table 16, symbol A); type: in vivo, late watergrass (Echinochloa oryzicola); settings: amount of applied herbicide 320 g/ha
Outline: as §2

southern crabgrass [10] = test: Test Example 4: herbicidal effect by soil treatment (Table 19, symbol F); type: in vivo, southern crabgrass (Digitaria ciliaris); settings: amount of applied herbicide 320 g/ha
Outline: as §3

blackgrass [11] = test: Test Example 4: herbicidal effect by soil treatment (Table 19, symbol J); type: in vivo, blackgrass (Alopecurus myosuroides); settings: amount of applied herbicide 320 g/ha
Outline: as §3

persian speedwell [12] = test: Test Example 4: herbicidal effect by soil treatment (Table 19, symbol R); type: in vivo, Persian speedwell (Veronica persica); settings: amount of applied herbicide 320 g/ha
Outline: as §3

oval-leafed pondweed = test: Test Example 1: herbicidal activity, application before weed generation under submerged conditions (Table 16, symbol C); type: in vivo, oval-leafed pondweed (Monochoria vaginalis); settings: amount of applied herbicide 320 g/ha
Outline: as §2

false cleavers [13] = test: Test Example 4: herbicidal effect by soil treatment (Table 19, symbol Q); type: in vivo, false cleavers (Galium spurium); settings: amount of applied herbicide 320 g/ha
Outline: as §3

lambsquarters = test: Test Example 5: herbicidal effect by foliage application, plastic box (Table 20, symbol O); type: in vivo, lambsquarters (Chenopodium album); settings: foliage application, 320 g/ha, three weeks after application
Outline: as §1

green foxtail [14] = test: Test Example 4: herbicidal effect by soil treatment (Table 19, symbol G); type: in vivo, green foxtail (Setaria viridis); settings: amount of applied herbicide 320 g/ha
Outline: as §3

redroot pigweed [15] = test: Test Example 5: herbicidal effect by foliage application, plastic box (Table 20, symbol N); type: in vivo, redroot pigweed (Amaranthus retroflexus); settings: foliage application, 320 g/ha, three weeks after application
Outline: as §1

windgrass [16] = test: Test Example 4: herbicidal effect by soil treatment (Table 19, symbol L); type: in vivo, windgrass (Apera spica-venti); settings: amount of applied herbicide 320 g/ha
Outline: as §3

blackgrass [17] = test: Test Example 5: herbicidal effect by foliage application, plastic box (Table 20, symbol J); type: in vivo, blackgrass (Alopecurus myosuroides); settings: foliage application, 320 g/ha, three weeks after application
Outline: as §1

rice flat sedge = test: Test Example 3: herbicidal effect by foliage application, Wagner pot (Table 18, symbol E); type: in vivo, rice flat sedge (Cyperus iria); settings: 320 g/ha
Outline: as §4

chickweed [18] = test: Test Example 4: herbicidal effect by soil treatment (Table 19, symbol P); type: in vivo, common chickweed (Stellaria media); settings: amount of applied herbicide 320 g/ha
Outline: as §3

southern crabgrass [19] = test: Test Example 5: herbicidal effect by foliage application, plastic box (Table 20, symbol F); type: in vivo, southern crabgrass (Digitaria ciliaris); settings: foliage application, 320 g/ha, three weeks after application
Outline: as §1

barnyard grass [20] = test: Test Example 5: herbicidal effect by foliage application, plastic box (Table 20, symbol H); type: in vivo, barnyard grass (Echinochloa crus-galli); settings: foliage application, 320 g/ha, three weeks after application
Outline: as §1

false cleavers [21] = test: Test Example 5: herbicidal effect by foliage application, plastic box (Table 20, symbol Q); type: in vivo, false cleavers (Galium spurium); settings: foliage application, 320 g/ha, three weeks after application
Outline: as §1

Chinese sprangletop = test: Test Example 3: herbicidal effect by foliage application, Wagner pot (Table 18, symbol D); type: in vivo, chinese sprangletop (Leptochloa chinensis); settings: 320 g/ha
Outline: as §4

velvetleaf [22] = test: Test Example 5: herbicidal effect by foliage application, plastic box (Table 20, symbol M); type: in vivo, velvetleaf (Abutilon theophrasti); settings: foliage application, 320 g/ha, three weeks after application
Outline: as §1

redroot pigweed [23] = test: Test Example 4: herbicidal effect by soil treatment (Table 19, symbol N); type: in vivo, redroot pigweed (Amaranthus retroflexus); settings: amount of applied herbicide 320 g/ha
Outline: as §3

wild oat [24] = test: Test Example 5: herbicidal effect by foliage application, plastic box (Table 20, symbol I); type: in vivo, wild oat (Avena fatua); settings: foliage application, 320 g/ha, three weeks after application
Outline: as §1

barnyard grass [25] = test: Test Example 4: herbicidal effect by soil treatment (Table 19, symbol H); type: in vivo, barnyard grass (Echinochloa crus-galli); settings: amount of applied herbicide 320 g/ha
Outline: as §3

Compound: CCCC(=O)Oc1c(C)nn(C)c(=O)c1-c1c(-c2ccc3c(c2)OCCO3)sc2cc(C)ccc12 [3-060]
- G: green foxtail, herbicidal effect grade (green foxtail [1]): 0 (Herbicidal rate of 5% or less (almost no effect))
- Herbicidal effect, B: Japanese bulrush (Japanese bulrush): 2 (Herbicidal rate of 20% or more and less than 40%)
- I: wild oat, herbicidal effect grade (wild oat [2]): 0 (Herbicidal rate of 5% or less (almost no effect))
- herbicidal effect on barnyard grass (H) (barnyard grass [3]): 3 (Herbicidal rate of 40% or more and less than 70%)
- P: chickweed, herbicidal effect grade (chickweed [4]): 5 (Herbicidal rate of 90% or more (almost completely withered))
- R: persian speedwell, herbicidal effect grade (persian speedwell [5]): 5 (Herbicidal rate of 90% or more (almost completely withered))
- M: velvetleaf, herbicidal effect grade (velvetleaf [6]): 0 (Herbicidal rate of 5% or less (almost no effect))
- K: Italian ryegrass, herbicidal effect grade (Italian ryegrass [7]): 0 (Herbicidal rate of 5% or less (almost no effect))
- L: windgrass, herbicidal effect grade (windgrass [8]): 3 (Herbicidal rate of 40% or more and less than 70%)
- K: Italian ryegrass, herbicidal effect grade (Italian ryegrass [9]): 0 (Herbicidal rate of 5% or less (almost no effect))
- Herbicidal effect, A: late watergrass (late watergrass): 1 (Herbicidal rate of 5% or more and less than 20%)
- F: southern crabgrass, herbicidal effect grade (southern crabgrass [10]): 0 (Herbicidal rate of 5% or less (almost no effect))
- J: blackgrass, herbicidal effect grade (blackgrass [11]): 0 (Herbicidal rate of 5% or less (almost no effect))
- R: persian speedwell, herbicidal effect grade (persian speedwell [12]): 3 (Herbicidal rate of 40% or more and less than 70%)
- Herbicidal effect, C: oval-leafed pondweed (oval-leafed pondweed): 0 (Herbicidal rate of 5% or less (almost no effect))
- Q: false cleavers, herbicidal effect grade (false cleavers [13]): 0 (Herbicidal rate of 5% or less (almost no effect))
- O: lambsquarters, herbicidal effect grade (lambsquarters): 0 (Herbicidal rate of 5% or less (almost no effect))
- G: green foxtail, herbicidal effect grade (green foxtail [14]): 0 (Herbicidal rate of 5% or less (almost no effect))
- N: redroot pigweed, herbicidal effect grade (redroot pigweed [15]): 0 (Herbicidal rate of 5% or less (almost no effect))
- L: windgrass, herbicidal effect grade (windgrass [16]): 0 (Herbicidal rate of 5% or less (almost no effect))
- J: blackgrass, herbicidal effect grade (blackgrass [17]): 3 (Herbicidal rate of 40% or more and less than 70%)
- herbicidal effect on rice flat sedge (E) (rice flat sedge): 3 (Herbicidal rate of 40% or more and less than 70%)
- P: chickweed, herbicidal effect grade (chickweed [18]): 0 (Herbicidal rate of 5% or less (almost no effect))
- F: southern crabgrass, herbicidal effect grade (southern crabgrass [19]): 0 (Herbicidal rate of 5% or less (almost no effect))
- H: barnyard grass, herbicidal effect grade (barnyard grass [20]): 0 (Herbicidal rate of 5% or less (almost no effect))
- Q: false cleavers, herbicidal effect grade (false cleavers [21]): 0 (Herbicidal rate of 5% or less (almost no effect))
- herbicidal effect on Chinese sprangletop (D) (Chinese sprangletop): 4 (Herbicidal rate of 70% or more and less than 90%)
- M: velvetleaf, herbicidal effect grade (velvetleaf [22]): 0 (Herbicidal rate of 5% or less (almost no effect))
- N: redroot pigweed, herbicidal effect grade (redroot pigweed [23]): 0 (Herbicidal rate of 5% or less (almost no effect))
- I: wild oat, herbicidal effect grade (wild oat [24]): 0 (Herbicidal rate of 5% or less (almost no effect))
- H: barnyard grass, herbicidal effect grade (barnyard grass [25]): 0 (Herbicidal rate of 5% or less (almost no effect))
